This note sets out measurements from patent USRE37781E1, “Substituted cyclic carbonyls and derivatives thereof useful as retroviral protease inhibitors” (DuPont Pharmaceuticals Company, priority 1991, dated 2002).

In brackets after ≈: the same amount, converted by molar mass. Read-outs that look alike come from different tables or passages of the source.

One data set is described as follows: Solubility studies. The format is physicochemical. As for the experimental part:
For compounds of the present invention having reduceded water solubility it may be advantageous to prepare prodrugs to enhance the solubility and bioavailability of these compounds. […] Solubility studies were performed by mixing an excess of solid compound in water or aqueous medium for at least 4 hours. Solubility was assessed either visually, if a weighed amount clearly dissolved in a measured volume of solvent (method A), or by HPLC assay of filtrates of saturated solutions (method B).

The subject of data set [1] is HIV(3B) or HIV(RF) in MT-2 cells. The format is cell-based. The arrangement: scale not given here. The note with it: Table E, whole cell infectivity assay. As to the method:
HIV Low Multiplicity Assay
Materials: MT-2, a human T-cell line, was cultured in RPMI medium supplemented with 5% (v/v) heat inactivated fetal calf serum (FCS), L-glutamine and gentamycin (GIBCO). Human immunodeficiency virus strains HIV (3B) and HIV (RF) were propagated in H-9 cells in RPMI with 5% FCS. XTT, benzene-sulfonic acid, 3,3′-[1-[(phenylamino) carbonyl]-3,4-tetrazolium]bis (4-methoxy-6nitro)-, sodium salt, was obtained from Starks Associates, Inc.
Method: Test compounds were dissolved in dimethylsulfoxide to 5 mg/ml and serially diluted into RPMI medium to ten times the desired final concentration. MT-2 cells (5×10^4/0.1 mL) were added to each well of a 96 well culture plate and 0.02 mL of the appropriate test compound solution was added to the cells such that each compound concentration was present in two wells. The cells and compounds were allowed to sit for 30 minutes at room temperature. HIV(3B) or HIV(RF) (−5×10^5 plaque foaming units/mL) was diluted in medium and added to the cell and compound mixtures to give a multiplicity of infection of 0.01 plaque forming unit/cell. The mixtures were incubated for 7 days at 36° C., during which time the virus replicated and caused the death of unprotected cells. The percentage of cells protected from virus induced cell death was determined by the degree of metabolism of the tetrazolium dye, XTT. In living cells, XTT was metabolized to a colored formazan product which was quantitated spectrophotometrically at 450 nm. The amount of colored formazan was proportional to the number of cells protected from virus by the test compound. The concentration of compound protecting either 50% (IC50) or 90% (IC90) with respect to an uninfected cell culture was determined.

The target of the next data set is T1, HIV protease (Human immunodeficiency virus type 1 group M subtype B, UniProt P04585).
T1 construct: plasmid containing HIV protease under the control of an inducible T7 promoter; made in house; host or cells: E. coli (inclusion bodies, T7 promoter)
Description: biochemical. Further details: species or system HIV-1. As to the method: HIV Protease Inhibition Assay—Spectroscopic Method
Inclusion bodies were solubilized in 8M urea, 50 mM tris pH 8.0. Protease activity was recovered by dilution 20-fold into buffer containing 50 mM sodium acetate pH 5.5, 1 mM EDTA, 10% glycerol and 5% ethylene glycol. Enzyme was used at a final concentration of 1.0-10 ug/ml.
Stock solutions of 10 mM were prepared in DMSO.
All further dilutions were done in DMSO.

A further data set relates to HIV-1 protease. Description: HIV-1 Protease Transgenic Mouse Model (cataract phenotype). The note with it: for Cataract Density (% of control): Tg 61 mouse; for Delay in Cataract (relative to control): Tg 72 mouse.
For a further data set, the system named is HIV-1 (RF) in MT-2 cells. Description: microbe, parasite or virus in culture. It counts as cell-based. The note with it: Human immunodeficiency virus 1, MT2, HIV RNA assay, HIV-1 infected MT-2 cells; class symbols; read-out: IC90. An outline of the steps:
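HIV-1 laboratory strains (RF, MN, IIIB) grown in H9 cells in RPMI 1640 with 5% FCS; infections in MT-2 cells. Viral RNA quantified by hybridization with biotinylated gag/pol capture probes on streptavidin plates and alkaline phosphatase-conjugated reporter probes; BH10 gag-pol in vitro transcripts serve as RNA standards.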

Data set [2] deals with single-chain tethered dimer of HIV protease (Human immunodeficiency virus 1, UniProt P04585). Briefly: biochemical. The format is biochemical.
Data set [3] can be described thus: Oral bioavailability studies in fasted beagle dogs. It counts as in vivo. The note with it: for bioavailability: beagle, dog, plasma, po, excipient glycol, read-out: % Oral Bioavailability of 5U (Mean ± SE). As to the method:
Improved water solubility can result in increasing the extent of oral bioavailability. Oral bioavailability studies were performed in fasted beagle dogs. Compounds were dosed orally using a solution vehicle or the solid drug powder filled into hard gelatin capsules. Periodic blood samples were taken from each dog and plasma was separated. Plasma drug concentrations were determined using extraction and HPLC analysis. Generally, after the administration of 5U or its prodrugs 29A-E, the plasma concentrations of 5U were determined, rather than unchanged prodrug concentrations. […] Oral bioavailability is expressed as the percentage of the oral dose absorbed. […] Therefore, in order to attain improved oral bioavailability, 5U was administered using a solution with polyethylene glycol 400 or propylene glycol as the vehicle. […] Improved oral bioavailability was attained when the water soluble prodrugs were administered in the solid form, with no added excipients or solvents. […] The advantage of the water soluble prodrugs is especially clear at high doses. […] Samples were then extracted again and assayed for 5U concentration. […] Thus, plasma levels of both intact prodrug and hydrolysis product can be attained using these water soluble prodrugs.

Method for HIV-1 protease: The HIV protease inhibitory activity of the presently claimed compounds was measured in this animal system as a delay or prevention of the onset of cataract appearance in the test animals.
Plasmid Construction: The mammalian expression vector pMSG (Pharmacia) was modified by replacing the MMTV LTR promoter with the 412-bp Bgl II-BamHI mouse alpha A-cryatallin promoter fragment (Chepelinsky et al. Proc. Natl. Acad. Sci. USA, 1985, 82, 2334-2338). The SV40 early splice and polyadenylation signals were retained and this plasmid was renamed pCSV 19. A single chain, tethered dimeric form of the active HIV-1 protease gene (BAA; Cheng et al., Proc. Natl. Acad. Sci. USA, 1990, 87, 9660-9664 and Cheng et al., Gene, 1990, 87, 243-248) was modified for mammalian cell expression by replacing nucleotides 7 to 90 with [sequence]. The gene was cut with EcoRI and Hind III and after blunt-end repair cloned into the Sma I site of the pCSV 19, thus producing PCSV 19-BAA.
Construction of Transgenic Mice: 2.5 kb Hind III fragments from the pCSV 19-BAA and pCSV 19-BA*A* plasmids were isolated (modified from Sambrook at al., Molecular Cloning, A Laboratory Manual, 2nd Ed., 1989, Cold Spring Harbor Laboratory) and used for the construction of transgenic mice using the pronuclei injection method (Hogan et al., Manipulating the Mouse Embryo. A Laboratory Manual, 1986, Cold Spring Harbor Laboratory). Mice were screened for the HIV-1 protease transgene by either Southern blot or Polymerase Chain Reaction (PCR) methods. Mice of the FVB/N strain (Taketo et al., Proc. Natl. Acad Sci. USA, 1991, 88, 2065-2069) were used for the construction and breeding of these transgenic mice, and were originally obtained from Dr. Carl Hansen (NIH) and bred in our facility. Subsequently, the mice were purchased from Charles River Laboratory (Portage, Mich.).
Identification of Transgenic Mice: Southern blot analysis (Sambrook et al. vide supra) was performed on DNA purified from tail biopsies (Hogan et al. vide supra) using the 2.5 kb Hind III fragment from pCSV 19-BAA as the probe (^32P labeled). DNA for PCR was prepared from tail biopsies by overnight digestion with 0.5 mg of Proteinase K (Boehringer-Manheim GmbH) in 100 μl of water and 0.025% SDS. PCR primers specific for the mouse c-fos gene and the transgene's SV40 segment were used as an internal control in some samples. Each PCR reaction contained 1-2 μl of tail digest, 60 μg of each primer, 200 μM of Perkin Elmer Cetus dATP, dCTP, dGTP,TTP (buffered at pH 8.8) and up to 5 units of Perkin Elmer Cetus Ampli/Taq polymerase. The reactions were run on a Perkin Elmer DNA Thermal Cycler as follows: 1 min at 94° C., 3 min at 67° C. (2 sec extension/cycle) for 35 cycles. The PCR products were analyzed by gel electrophoresis (1% agarose,0.5 μg/ml of ethidium bromide), and tail samples with a 625 PCR fragment (SV40 specific) were considered positive for the transgene. Mice bearing the active HIV-1 protease transgene were also identified by their cataract phenotype.
Dosing Regimen: Compounds to be tested were pulverized by manual grinding with mortar and pestle. Just prior to dosing of mice, the compound was suspended in 0.25% methylcellulose/Tween 80 solution, homogenized in a manual Dounce homogenizer and sonicated for 10 min in a sonicating water bath. The volume of suspension was adjusted so that the amount of compound required for dosing one mouse was 0.1-0.2 mL. In order to maintain the required mg/kg dose, an average mouse weight for each group was determined twice a week and the amount of compound adjusted accordingly. Intraperitoneal (ip) and oral (po) dosing was performed using 25 G ⅝ in. injection and 20 G 1½ in. feeding needles, respectively. The dosing was performed twice a day (bid) and the doses were administered 6-8 h apart.

In general, Solubility refers to how much of the substance goes into solution per volume. In “Solubility studies” (water, method A (visually)), `CN(C)CC(=O)OCc1ccc(CN2C(=O)N(Cc3ccc(CO)cc3)[C@H](Cc3ccccc3)[C@H](O)[C@@H](O)[C@H]2Cc2ccccc2)cc1.Cl` [Example 29D] displayed a Solubility greater than 200000 µg/mL.

In general, IC90 refers to the point of the concentration-response curve where the effect stands at 90%. As usually defined, the Ki is the dissociation constant of the complex between target and ligand, obtained from inhibition or displacement. With `O=C1N(Cc2ccccc2)C(Cc2ccccc2)C(O)C(O)C(Cc2ccccc2)N1Cc1ccccc1` (stereo not shown) [Example 1AQ], the IC90 result in data set [1] was “+ + +”. The compound also had an inhibitory constant (Ki) at HIV protease (Ki) of less than 10 nM. In addition, the “Cataract Density (% of control)” value in the data set on HIV-1 protease (60 mg/kg ip preg days 11-18) was 46.6 % of control; with HIV-1 protease (85 mg/kg ip preg days 11-18, 17-18), 20.6 % of control.

What is called melting point is the temperature of the solid-liquid transition. Compound `CCCN1C(=O)N(CCC)C(Cc2ccccc2)C(O)C(O)C1Cc1ccccc1` (stereo not shown) [Example 1AF] registered a melting point of 180 to 182 °C. In addition, in data set [1], the IC90 entry is “+ + +”.

Broadly, the bioavailability is dose-corrected exposure relative to a reference, in per cent. For `O=C1N(Cc2ccc(CO)cc2)C(Cc2ccccc2)C(O)C(O)C(Cc2ccccc2)N1Cc1ccc(CO)cc1` (stereo not shown) [Example 5U], the Solubility in “Solubility studies” (thermodynamic from solid, water, method B (HPLC assay of filtrates of saturated solutions), read-out: Solubility) is 10 µg/mL (≈ 17.6 µM). The IC90 in the data set with HIV-1 (RF) in MT-2 cells was less than 10 µg/mL. The compound also yielded a Ki in data set [2] of less than 10 nM. In addition, the oral bioavailability result is “low oral bioavailability” in data set [3] (administered as the solid powder) and “relatively poor oral bioavailability” in data set [3] (similar (high) dose in a non-aqueous vehicle). For the same compound, the bioavailability was determined as 5 ± 2% in data set [3] (dose 40 mg/kg 5U eq.) and 50 ± 20% in data set [3] (dose 10-15 mg/kg 5U eq.). In addition, the “Delay in Cataract (relative to control)” value in the data set with HIV-1 protease (100 mg/kg bid ip) was 5 days; in the data set with HIV-1 protease (400 mg/kg bid ip days 15-42), 45 days.

On to `CCCCN1C(=O)N(CCCC)C(Cc2ccccc2)C(O)C(O)C1Cc1ccccc1` (stereo not shown) [Example 1Z], for which the IC90 result in data set [1] is reported as “+ + +”. The Ki on HIV protease (Table 1a, read-out: Ki) was less than 10 nM.

Take `C=CCN1C(=O)N(CC=C)C(Cc2ccccc2)C(O)C(O)C1Cc1ccccc1` (stereo not shown) [Example 1C]: in data set [1], the IC90 entry is recorded as “+ + +”. This compound also displayed a Ki at HIV protease (Ki, Table 1a) of less than 10 nM.

For the compound `CC(C)=CCN1C(=O)N(CC=C(C)C)C(Cc2ccccc2)C(O)C(O)C1Cc1ccccc1` (stereo not shown) [Example 1AC], the melting point fell in the range of 160 to 163 °C. In data set [1], the IC90 entry is “+ + +”. On HIV protease (Table 1a, read-out: Ki), the Ki was less than 10 nM.

Consider `O=C1N(Cc2ccc(COP(=O)(O)O)cc2)[C@H](Cc2ccccc2)[C@H](O)[C@@H](O)[C@@H](Cc2ccccc2)N1Cc1ccc(COP(=O)(O)O)cc1` [Example 29A], for which the Solubility in the data set “Solubility studies” was determined as 2250 µg/mL (≈ 3100 µM).

For `O=Cc1ccc(CN2C(=O)N(Cc3ccc(C=O)cc3)C(Cc3ccccc3)C(O)C(O)C2Cc2ccccc2)cc1` (stereo not shown) [Example 5X], the melting point lay in the range of 90 to 91 °C. Also, the IC90 in the data set on HIV-1 (RF) in MT-2 cells was less than 10 µg/mL. For the same compound, the inhibitory constant (Ki) in data set [2] is less than 10 nM.

Take `O=C1NC(Cc2ccccc2)C(O)C(O)C(Cc2ccccc2)N1Cc1ccc2ccccc2c1` (stereo not shown) [Example 4V]: the melting point is 210 to 213 °C. Besides, in the data set on HIV-1 (RF) in MT-2 cells, the IC90 is less than 10 µg/mL. In data set [2], this compound gave a Ki of less than 10 nM.

Turning to `CC(C)(C)CCN1C(=O)N(CCC(C)(C)C)C(Cc2ccccc2)C(O)C(O)C1Cc1ccccc1` (stereo not shown) [Example 3P], the melting point lay in the range of 242 to 245 °C. In the data set with HIV-1 (RF) in MT-2 cells, the IC90 was greater than 100 µg/mL. Besides, the Ki in data set [2] lay within 10 to 1000 nM.

`CCOc1cccc(CN2C(=O)N(Cc3cccc(OCC)c3)C(Cc3ccccc3)C(O)C(O)C2Cc2ccccc2)c1` (stereo not shown) [Example 5N]: the melting point lay within 185 to 186 °C. For the same compound, the IC90 in the data set with HIV-1 (RF) in MT-2 cells was greater than 100 µg/mL. In data set [2], this compound registered a Ki of 10 to 1000 nM.

In turn, `COCCN1C(=O)N(CCOC)C(Cc2ccccc2)C(O)C(O)C1Cc1ccccc1` (stereo not shown) [Example 3N] returned a melting point of 183 to 185 °C. In the data set with HIV-1 (RF) in MT-2 cells, the IC90 is greater than 100 µg/mL. Also, in data set [2], the Ki lay within 10 to 1000 nM.

`CC(C)CCN1C(=O)N(CCC(C)C)C(Cc2ccccc2)C(O)C(O)C1Cc1ccccc1` (stereo not shown) [Example 1AH] showed a melting point of 194 to 195 °C. In addition, the IC90 entry in data set [1] was “+ + +”. Besides, the Ki at HIV protease (Table 1a, read-out: Ki) is less than 10 nM.

As to `C=CCN1C(=O)N(Cc2ccccn2)C(Cc2ccccc2)C(O)C(O)C1Cc1ccccc1` (stereo not shown) [Example 5C], the melting point lay within 160 to 162 °C. The IC90 with HIV-1 (RF) in MT-2 cells was less than 10 µg/mL. Further, the Ki in data set [2] lay within 10 to 1000 nM.

Turning to `CCCCN1C(=O)N(Cc2ccccc2)C(Cc2ccccc2)C(O)C(O)C1Cc1ccccc1` (stereo not shown) [Example 3V], the melting point lay within 89 to 91 °C. Further, the IC90 in the data set with HIV-1 (RF) in MT-2 cells is less than 10 µg/mL. The Ki in data set [2] is less than 10 nM.

The compound `CC(C)N1C(=O)N(Cc2cccc(O)c2)C(Cc2ccccc2)C(O)C(O)C1Cc1ccccc1` (stereo not shown) [Example 5Z] returned a melting point of 212 to 213 °C. The concentration for an effect of 90% (IC90) with HIV-1 (RF) in MT-2 cells is less than 10 µg/mL. In addition, the Ki in data set [2] is less than 10 nM.

Turning to `CCN1C(=O)N(Cc2ccccc2)C(Cc2ccccc2)C(O)C(O)C1Cc1ccccc1` (stereo not shown) [Example 4A], the melting point was 190 to 193 °C. In addition, the 90% effect concentration (IC90) in the data set on HIV-1 (RF) in MT-2 cells was less than 10 µg/mL. This compound gave a Ki in data set [2] of less than 10 nM.

The compound `CC(C)=CCN1C(=O)N(Cc2ccccc2)C(Cc2ccccc2)C(O)C(O)C1Cc1ccccc1` (stereo not shown) [Example 3Y] yielded a melting point of 173 to 174 °C. The IC90 with HIV-1 (RF) in MT-2 cells is less than 10 µg/mL. Further, in data set [2], the Ki is less than 10 nM.

Turning to `O=C1N(Cc2ccc(O)cc2)C(Cc2ccccc2)C(O)C(O)C(Cc2ccccc2)N1Cc1ccc(O)cc1` (stereo not shown) [Example 5R], the melting point was 115 to 117 °C. Further, the IC90 with HIV-1 (RF) in MT-2 cells was less than 10 µg/mL. In addition, the inhibitory constant (Ki) in data set [2] was less than 10 nM.

Compound `O=C1N(Cc2ccc3ccccc3c2)C(Cc2ccccc2)C(O)C(O)C(Cc2ccccc2)N1CC1CC1` (stereo not shown) [Example 4K] yielded a melting point of 175 to 178 °C. For the same compound, the concentration for an effect of 90% (IC90) in the data set with HIV-1 (RF) in MT-2 cells was less than 10 µg/mL. Also, the Ki in data set [2] was less than 10 nM.

The compound `O=C1N(Cc2cccc(Cl)c2)C(Cc2ccccc2)C(O)C(O)C(Cc2ccccc2)N1Cc1cccc(Cl)c1` (stereo not shown) [Example 6X] yielded a melting point of 210.3 °C. Moreover, the IC90 in the data set with HIV-1 (RF) in MT-2 cells is less than 10 µg/mL. Moreover, the Ki in data set [2] is less than 10 nM.

As for `O=C1N(CC2CC2)[C@H](Cc2ccccc2)[C@H](O)[C@@H](O)[C@@H](Cc2ccccc2)N1CC1CC1` [Example 1X], the IC90 result in data set [1] is on record as “+ + +”. The inhibition constant Ki on HIV protease (Table 1a, read-out: Ki) is less than 10 nM. Further, the “Cataract Density (% of control)” value in the data set on HIV-1 protease (5 mg/kg ip preg days 11-18) is given as 39.8 % of control; with HIV-1 protease (15 mg/kg ip preg days 11-18) it was 28.8 % of control.
